Assay results published in article PMC5995442, “Drug discovery with an RBM20 dependent titin splice reporter identifies cardenolides as lead structures to improve cardiac filling” (PLoS ONE, 2018).
“Also recorded” adds a separate entry of the source. Read-outs that look alike come from different tables or passages of the source.

Columns and labels:
[1] = tested on: RBM20 dependent titin PEVK4-13 splicing reporter; assay: Dual luciferase splicing reporter assay (DLR assay), RBM20 co-transfected; format: cell-based, human; settings: for IC50: Homo sapiens
Excerpt: (§1) The objective of our study was to identify and evaluate small molecules with the potential to modulate alternative splicing via an unbiased chemical high-throughput screening approach. Using transient transfection of a dual luciferase splicing reporter assay (DLR-assay) in HEK293.EBNA cells and a RBM20 expression construct, we investigated >34.000 substances for their effect on alternative exon exclusion from our RBM20 dependent titin PEVK4-13 splicing reporter. For the primary screen (pilot screen), each compound was tested at 10 μM (single point) and compared to an untreated control. Positive hits leading to differential exon usage (exceeding three standard deviations) were picked for independent validation in 9 serial 2-fold dilutions starting at 20 μM. Compounds that produced a concentration dependent effect were validated manually in the 96-well format and cytotoxicity was evaluated. To minimize the detection of false positives, we excluded compounds with structural homology to each luciferase’s natural substrate. To determine the EC50 of candidates we calculated dose response curves using a non-linear least-squares fitting routine available within the GNUPLOT package (accessible online: http://ic50.tk/index.html). […] Compounds that produced a concentration depend effect in the DLR-assay and altered the alternative transcript levels were regarded as validated alternative splicing modulators.
(§2) Cells transfected were at a confluency of 50-60%.
(§3) 5000 HEK293.EBNA cells were seeded in clear bottom, white 384-well plates (Corning by Sigma-Aldrich Chemie GmbH, Munich, Germany) using an automated cell dispenser (Biotek, Bad Friedrichshall, Germany). 24 h after cell seeding the expression plasmids were delivered using a Freedom EVO® robotic workstation (TECAN, Maennedorf, Switzerland) equipped with a MultiChannel Arm™. Cells were transiently transfected with 45 ng plasmid DNA ([…] and 40 ng RBM20 or 24 ng of the negative control pcDNA3.1 ad 45 ng with bacterial expression plasmid pBSSK). Compounds were added to the plates the following day using the same robotic platform. Luciferase activity was determined using Dual-Glo® Luciferase Assay System (Promega GmbH, Mannheim, Germany) on an Infinite® M1000 Pro (TECAN, Maennedorf, Switzerland) plate reader around 60 hours post-transfection. Assay robustness was evaluated by calculation z’ scores using an online tool provided by the Screening Unit at FMP Berlin (http://www.screeningunit-fmp.net/tools/z-prime.php).

[2] = as above; format: cell-based, human; settings: human; RBM20 titin reporter, N = 3; read-out: cell viability below which the splice reporter readout is affected
Excerpt: as §1, §2, §3

HEK293.EBNA cells = assay: Cell viability, resazurin based staining (PrestoBlue); parameters: species or system human; settings: for IC50: Homo sapiens, HEK293-EBNA
Excerpt: as §2

[3] = tested on: titin minigene TTN Ex241-43 transcripts; assay: RT-PCR / RT-qPCR of transcripts from titin minigene TTN Ex241-43 (I96-98); format: cell-based, human
Excerpt: The objective of our study was to identify and evaluate small molecules with the potential to modulate alternative splicing via an unbiased chemical high-throughput screening approach. Using transient transfection of a dual luciferase splicing reporter assay (DLR-assay) in HEK293.EBNA cells and a RBM20 expression construct, we investigated >34.000 substances for their effect on alternative exon exclusion from our RBM20 dependent titin PEVK4-13 splicing reporter. For the primary screen (pilot screen), each compound was tested at 10 μM (single point) and compared to an untreated control. Positive hits leading to differential exon usage (exceeding three standard deviations) were picked for independent validation in 9 serial 2-fold dilutions starting at 20 μM. Compounds that produced a concentration dependent effect were validated manually in the 96-well format and cytotoxicity was evaluated. To minimize the detection of false positives, we excluded compounds with structural homology to each luciferase’s natural substrate. To determine the EC50 of candidates we calculated dose response curves using a non-linear least-squares fitting routine available within the GNUPLOT package (accessible online: http://ic50.tk/index.html). We evaluated the effect on splice activity on the RNA level by RT-qPCR of isoforms generated from a titin minigene containing TTN Ex241-43 (corresponding to TTN I-band exon I96-98) in the presence of the potential splice modulators. […]
Total RNA from HEK293.EBNA cells was extracted using RNeasy Micro Kit (Qiagen, Hilden, Germany) according to the manufacturer’s instructions. […] Quantitative RT-PCR was performed using SYBRGreen master mix (Applied Biosystems by Thermo Fisher Scientific Inc., USA) on a 7900 HT RT-cycler (Applied Biosystems by Thermo Fisher Scientific, Inc., USA). […] To quantification gene expression, we used the ΔΔCT method normalized to 18S or to the alternative transcripts generated from the splicing reporter. PSI values were calculated as ratio of unspliced and spliced reporter transcript. […]

RBM20 protein levels = assay: RBM20 protein expression by immunoblot in co-transfected HEK293 cells; format: cell-based, human; settings: 0.235 μM digoxin, co-transfected HEK293 cells
Description: For immunodetection, HEK293.EBNA samples were harvested by rinsing them of the cell culture substrate using PBS at 37°C and subsequently used for downstream processing or snap frozen in liquid nitrogen. For protein extraction samples were suspended in RIPA buffer (50 mM Tris pH 8.0, 150 mM NaCl, 1% NP-40, 0.25% sodium deoxycholate, 1.0 mM EDTA; 0.1% SDS) and lysed via sonication with 20 bursts at 70% energy using a VialTweeter (Hielscher Ultrasonics GmbH, Teltow, Germany). Protein concentration was estimated after 20’ precipitation of cell debris at 13,000xg for 20 min at 4°C using BCA assay (Life Technologies GmbH, Darmstadt, Germany [23225]). Samples were kept cool at any time. Lysates were separated by SDS-PAGE [14] and blotted on PVDF membranes. Blotted antigens were probed with mouse anti-c-myc 9E10 ([M5546], Sigma-Aldrich Chemie GmbH, Munich, Germany) tag antibody at 1:2000 and detected using a sheep anti-mouse IgG-HRP (GE Healthcare Europe GmbH, Freiburg, Germany [NA9310V]) conjugate 1:5000 follow by visualization with AceGlow™ (VWR PEQL37) on a FUSION FX7 CCD camera system (Vilber Lourmat Deutschland GmbH, Eberhardzell, Germany).

[4] = tested on: RBFOX1 dependent splicing of FMNL3; assay: cells
Description: (§4) For transfection 25000 cells/well were seeded on 96-well Nunc F96 MicroWell™ plates (Life Technologies GmbH, Darmstadt, Germany) and transfected with a total of 200 ng of plasmid DNA of which 1 ng was splice reporter plus a corresponding amount of RBM20, RBFOX1 or control plasmid (pcDNA3.1) in a 20x molar excess. To deliver plasmid DNA we used the 40 kDa linear polyethylenimine (Polysciences Europe GmbH, Hirschberg, Germany) at a 1:3 ratio (DNA:PEI40). Cells transfected were at a confluency of 50-60%. Compounds were applied 24 h post-transfection at a final DMSO concentration of 1%. Luciferase activity was measured 60 hours post-transfection using the Dual-Luciferase® Reporter Assay System (Promega GmbH, Mannheim, Germany) on an Infinite® M200 Pro (TECAN, Maennedorf, Switzerland) plate reader. Ratios of firefly to renilla luciferase activity were normalized to the control (pcDNA3.1) without the splicing factor expression construct. Cell viability was measured 60 h post-transfection using a resazurin based staining of metabolically active cells (PrestoBlue®, Life Technologies GmbH, Darmstadt, Germany).
(§5) To evaluate the specificity of the splice effect, we generated an independent splice reporter based on formin-like 3 (FMNL3) and its splice factor RBFOX1 (S5 Fig). […] To exclude an unspecific effect of cell death on RBM20 dependent splicing, we used the steroidal homolog digitonin to induce cell death.

in vitro = settings: human
Description: as §4, §5

[5] = biological target: Na+/K+ ATPase human erythrocytes; parameters: method as in PMID 11072868; settings: cited from earlier work
[6] = HEK293 cells, 60 h post-transfection, RBM20/titin reporter transfected, read-out: Viability IC50

| Compound | effect on RBM20-mediated titin splicing (in words) ([1]; DLR assay, HEK293) | IC50 ([1]; FLuc/RLuc ratio, HEK293 cells, 96-well format, inset table of figure, read-out: Splicing IC50) | viability at 36 h [2] | IC50 (HEK293.EBNA cells; [6]) | effect on splicing on the mRNA level (in words) ([3]; RT-PCR of minigene, HEK293) | RBM20 protein levels reduced to (RBM20 protein levels) | IC50 ([4]; Homo sapiens, HEK293, read-out: FMNL3/RBFOX1 Splicing IC50, FMNL3 exons 25-26 reporter co-transfected with RBFOX1, HEK293) | effect on FMNL3 splicing (in words) ([4]; concentrations of up to 20x the half-maximal lethal dose) | viability at 36 h (in vitro) | Splicing Hill Coeff. [1] | effect on RBM20-mediated titin splicing (in words) [1] | IC50 ([1]; HEK293, read-out: IC50 Splicing HEK293 cells) | IC50 (HEK293.EBNA cells; HEK293, read-out: IC50 viability (half-maximal lethal dose)) | Viability Hill Coeff. (HEK293.EBNA cells; dose response fit, head prints [μM], fits IC50 only) | Viability Max (HEK293.EBNA cells; fit maximum of relative viability, head prints [μM], fits IC50 only) | IC50 [5] | intron retention / mRNA maturation (in words) ([3]; HEK293 transfected with RBM20 and minigene I96-98) |
| --- | --- | --- | --- | --- | --- | --- | --- | --- | --- | --- | --- | --- | --- | --- | --- | --- | --- |
| C[C@@H]1CC[C@@]2(OC1)O[C@H]1[C@@H](O)[C@H]3[C@@H]4CC[C@H]5C[C@@H](O[C@@H]6O[C@H](CO)[C@H](O[C@@H]7O[C@H](CO)[C@@H](O)[C@H](O[C@@H]8OC[C@@H](O)[C@H](O)[C@H]8O)[C@H]7O[C@@H]7O[C@H](CO)[C@H](O)[C@H](O[C@@H]8O[C@H](CO)[C@@H](O)[C@H](O)[C@H]8O)[C@H]7O)[C@H](O)[C@H]6O)[C@H](O)C[C@]5(C)[C@H]4CC[C@]3(C)[C@H]1[C@@H]2C [Digitonin] | little effect at the highest doses only; also recorded: do not interfere with RBM20 dependent splicing | 14100 ± 3980 nM | < 20% | 2670 ± 212 nM | no effect on the mRNA level |  |  |  |  |  |  |  |  |  |  |  |  |
| C[C@H]1O[C@@H](O[C@H]2[C@@H](O)C[C@H](O[C@H]3[C@@H](O)C[C@H](O[C@H]4CC[C@@]5(C)[C@H](CC[C@@H]6[C@@H]5C[C@@H](O)[C@]5(C)[C@@H](C7=CC(=O)OC7)CC[C@]65O)C4)O[C@@H]3C)O[C@@H]2C)C[C@H](O)[C@@H]1O [Digoxin] |  |  |  | 132 ± 6.6 nM |  | 10% | 2600 nM | not affected | < 30% | 2.8711 ± 0.6588 | efficiently inhibit RBM20 mediated splicing | 153 nM | 132 nM | 2.2906 ± 0.2256 | 1.0089 ± 0.0119 | 0.39 nM | does not cause intron retention |
